What all share (assay): biochemical
The target in assay [1] is T1, SARS-CoV-2 3CL^pro (Severe acute respiratory syndrome coronavirus 2, UniProt P0DTD1).
T1 construct: […]; made in house; host or cells: Escherichia coli

In assay [2] the target is T2, HCoV-229E 3CL^pro (Human coronavirus 229E, UniProt P0C6X1).
T2 construct: […]; made in house; host or cells: E. coli BL21 (DE3)

For assay [3], the target named is MERS-CoV 3CL^pro (Middle East respiratory syndrome-related coronavirus, UniProt K9N7C7).
Assay [4] addresses SARS-CoV 3CL^pro (Severe acute respiratory syndrome coronavirus, UniProt P0C6X7).

Molecules are shown by their SMILES.

As a reminder, the IC50 is the concentration needed to halve the response being measured.

Chain of MERS-CoV 3CL^pro (K9N7C7 3248-3553): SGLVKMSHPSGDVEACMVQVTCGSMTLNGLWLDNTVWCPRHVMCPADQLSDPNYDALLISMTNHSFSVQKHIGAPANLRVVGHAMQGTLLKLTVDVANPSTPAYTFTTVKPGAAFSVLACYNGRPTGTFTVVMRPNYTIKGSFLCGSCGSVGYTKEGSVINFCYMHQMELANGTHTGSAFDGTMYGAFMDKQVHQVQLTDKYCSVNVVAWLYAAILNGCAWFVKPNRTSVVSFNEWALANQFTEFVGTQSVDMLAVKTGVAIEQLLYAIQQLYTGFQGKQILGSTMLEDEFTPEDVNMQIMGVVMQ
T2 sequence (P0C6X1 2966-3267): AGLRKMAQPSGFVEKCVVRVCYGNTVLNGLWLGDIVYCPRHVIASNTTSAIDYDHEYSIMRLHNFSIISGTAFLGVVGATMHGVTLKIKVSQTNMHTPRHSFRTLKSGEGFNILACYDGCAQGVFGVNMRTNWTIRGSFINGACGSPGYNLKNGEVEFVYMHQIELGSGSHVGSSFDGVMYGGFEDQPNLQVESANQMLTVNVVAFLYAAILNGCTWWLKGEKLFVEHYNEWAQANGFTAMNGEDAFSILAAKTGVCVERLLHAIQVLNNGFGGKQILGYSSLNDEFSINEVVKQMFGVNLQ

Take `CC(C)(C)[C@H](NC(=O)[C@@H]1CC1(F)F)C(=O)N1C[C@@H]2CCC[C@@H]2[C@H]1C(=O)NN(C[C@H]1C(=O)N[C@@H]2C[C@@H]21)C(=O)[C@@H](F)Cl` [Example 37, (1S)-N-[(1S)-1-[(3S,3aS,6aR)-3-[[[(2S)-2-chloro-2-fluoro-acetyl]-[[(1R,4S,5R)-3-oxo-2-azabicyclo[3.1.0]hexan-4-yl]methyl]amino]carbamoyl]-3,3a,4,5,6,6a-hexahydro-1H-cyclopenta[c]pyrrole-2-carbonyl]-2,2-dimethyl-propyl]-2,2-difluoro-cyclopropanecarboxamide]: the IC50 came to 17 nM in assay [1], 191 nM in assay [2], 320 nM in assay [3] and 21 nM in assay [4].
On to `CC1(C)C[C@@H](CN(NC(=O)[C@@H]2[C@H]3CCC[C@H]3CN2C(=O)[C@@H](NC(=O)[C@H](F)Cl)C(C)(C)C)C(=O)[C@H](F)Cl)C(=O)N1` [Example 14, (2R)-N-[(1S)-1-[(3S,3aS,6aR)-3-[[[(2R)-2-chloro-2-fluoro-acetyl]-[[(3S)-5,5-dimethyl-2-oxo-pyrrolidin-3-yl]methyl]amino]carbamoyl]-3,3a,4,5,6,6a-hexahydro-1H-cyclopenta[c]pyrrole-2-carbonyl]-2,2-dimethyl-propyl]-2-chloro-2-fluoro-acetamide], for which the IC50 was 9 nM in assay [1], 1270 nM in assay [2], 1240 nM in assay [3] and 9 nM in assay [4].
As for `CC(C)(C)[C@H](NC(=O)[C@@H]1CC1(F)F)C(=O)N1C[C@@H]2CCC[C@@H]2[C@H]1C(=O)NN(C[C@@H]1CC2(CC2)NC1=O)C(=O)[C@H](F)Cl` [Example 25], the IC50 in assay [1] is 12 nM; in assay [2] it was 40 nM; in assay [3], 62 nM; in assay [4], 14 nM.
Consider `CC(C)(C)[C@H](NC(=O)[C@@H]1CC1(F)F)C(=O)N1C[C@@H]2CCC[C@@H]2[C@H]1C(=O)NN(C[C@@H]1C(=O)N[C@@H]2C[C@H]12)C(=O)[C@H](F)Cl` [Example 38, (1S)-N-[(1S)-1-[(3S,3aS,6aR)-3-[[[(2R)-2-chloro-2-fluoro-acetyl]-[[(1R,4R,5R)-3-oxo-2-azabicyclo[3.1.0]hexan-4-yl]methyl]amino]carbamoyl]-3,3a,4,5,6,6a-hexahydro-1H-cyclopenta[c]pyrrole-2-carbonyl]-2,2-dimethyl-propyl]-2,2-difluoro-cyclopropanecarboxamide], for which the IC50 in assay [1] came out at 27 nM; in assay [2], 134 nM; in assay [3] it was 398 nM; in assay [4], 54 nM.
As to `CC1(C)C[C@@H](CN(NC(=O)[C@@H]2[C@H]3CCC[C@H]3CN2C(=O)[C@@H](NC(=O)[C@@H]2CC2(F)F)C(C)(C)C)C(=O)[C@H](F)Cl)C(=O)N1` [Example 4, (1S)-N-[(1S)-1-[(3S,3aS,6aR)-3-[[[(2R)-2-chloro-2-fluoro-acetyl]-[[(3S)-5,5-dimethyl-2-oxo-pyrrolidin-3-yl]methyl]amino]carbamoyl]-3,3a,4,5,6,6a-hexahydro-1H-cyclopenta[c]pyrrole-2-carbonyl]-2,2-dimethyl-propyl]-2,2-difluoro-cyclopropanecarboxamide], the IC50 came out at 11 nM in assay [1], 838 nM in assay [2], 518 nM in assay [3] and 15 nM in assay [4].
As to `CC1(C)C[C@@H](CN(NC(=O)[C@@H]2[C@H]3CCC[C@H]3CN2C(=O)[C@@H](NC(=O)C(F)F)C(C)(C)C)C(=O)[C@H](F)Cl)C(=O)N1` [Example 11, N-[(1S)-1-[(3S,3aS,6aR)-3-[[[(2R)-2-chloro-2-fluoro-acetyl]-[[(3S)-5,5-dimethyl-2-oxo-pyrrolidin-3-yl]methyl]amino]carbamoyl]-3,3a,4,5,6,6a-hexahydro-1H-cyclopenta[c]pyrrole-2-carbonyl]-2,2-dimethyl-propyl]-2,2-difluoro-acetamide], the IC50 is 9 nM in assay [1], 1690 nM in assay [2], 909 nM in assay [3] and 14 nM in assay [4].
Turning to `CC1(C)C[C@@H](CN(NC(=O)[C@@H]2[C@@H]3[C@H](CN2C(=O)[C@@H](NC(=O)[C@@H](F)Cl)C(C)(C)C)C3(C)C)C(=O)[C@@H](F)Cl)C(=O)N1` [Example 22, (2S)-2-chloro-N-[(1S)-1-[(1R,2S,5S)-2-[[[(2S)-2-chloro-2-fluoro-acetyl]-[[(3S)-5,5-dimethyl-2-oxo-pyrrolidin-3-yl]methyl]amino]carbamoyl]-6,6-dimethyl-3-azabicyclo[3.1.0]hexane-3-carbonyl]-2,2-dimethyl-propyl]-2-fluoro-acetamide], the IC50 in assay [1] turned out to be 31 nM; in assay [2], 3520 nM; in assay [3], 1870 nM; in assay [4] it was 48 nM.
As to `CCC(CC)[C@H](NC(=O)[C@@H](F)Cl)C(=O)N1C[C@@H]2CCC[C@@H]2[C@H]1C(=O)NN(C[C@@H]1CC(C)(C)NC1=O)C(=O)[C@@H](F)Cl` [Example 13, (2S)-N-[(1S)-1-[(3S,3aS,6aR)-3-[[[(2S)-2-chloro-2-fluoro-acetyl]-[[(3S)-5,5-dimethyl-2-oxo-pyrrolidin-3-yl]methyl]amino]carbamoyl]-3,3a,4,5,6,6a-hexahydro-1H-cyclopenta[c]pyrrole-2-carbonyl]-2-ethyl-butyl]-2-chloro-2-fluoro-acetamide], the IC50 in assay [1] is 9 nM; in assay [2] it was 401 nM; in assay [3] it was 263 nM; in assay [4], 11 nM.
Take `C[C@H]1C[C@@H](CN(NC(=O)[C@@H]2[C@@H]3[C@H](CN2C(=O)[C@@H](NC(=O)[C@@H]2CC2(F)F)C(C)(C)C)C3(C)C)C(=O)[C@H](F)Cl)C(=O)N1` [Example 33, (1S)-N-[(1S)-1-[(1R,2S,5S)-2-[[[(2R)-2-chloro-2-fluoro-acetyl]-[[(3S,5S)-5-methyl-2-oxo-pyrrolidin-3-yl]methyl]amino]carbamoyl]-6,6-dimethyl-3-azabicyclo[3.1.0]hexane-3-carbonyl]-2,2-dimethyl-propyl]-2,2-difluoro-cyclopropanecarboxamide]: the IC50 was found to be 6 nM in assay [1], 26 nM in assay [2], 72 nM in assay [3] and 13 nM in assay [4].
In the case of `CC[C@H](C)[C@H](NC(=O)C1(F)CC1)C(=O)N1C[C@H]2[C@@H]([C@H]1C(=O)NN(C[C@@H]1CC(C)(C)NC1=O)C(=O)[C@H](F)Cl)C2(C)C` [Example 1a, N-[(1S,2S)-1-[(1R,2S,5S)-2-[[[(2R)-2-chloro-2-fluoro-acetyl]-[[(3S)-5,5-dimethyl-2-oxo-pyrrolidin-3-yl]methyl]amino]carbamoyl]-6,6-dimethyl-3-azabicyclo[3.1.0]hexane-3-carbonyl]-2-methyl-butyl]-1-fluoro-cyclopropanecarboxamide], the IC50 is 48 nM in assay [1], 421 nM in assay [2], 635 nM in assay [3] and 84 nM in assay [4].
Taken in the same sequence, the figures for `C[C@@H]1C[C@H](CN(NC(=O)[C@@H]2[C@@H]3[C@H](CN2C(=O)[C@@H](NC(=O)[C@@H]2CC2(F)F)C(C)(C)C)C3(C)C)C(=O)[C@@H](F)Cl)C(=O)N1` [Example 32, (1S)-N-[(1S)-1-[(1R,2S,5S)-2-[[[(2S)-2-chloro-2-fluoro-acetyl]-[[(3R,5R)-5-methyl-2-oxo-pyrrolidin-3-yl]methyl]amino]carbamoyl]-6,6-dimethyl-3-azabicyclo[3.1.0]hexane-3-carbonyl]-2,2-dimethyl-propyl]-2,2-difluoro-cyclopropanecarboxamide] were 65 nM, 70 nM, 200 nM and 116 nM.
